# Measured values reported in article PMC7403421, “Uncovering a possible role of reactive oxygen species in magnetogenetics” (Scientific Reports, 2020).
# Biological target: T1, TRPV1 (Rattus norvegicus, UniProt O35433)
# T1 construct: rat TRPV1 with an N-terminally fused camelidae anti-GFP nanobody (αGFPnb-TRPV1), co-expressed with eGFP-tagged ferritin dimer in HEK-293T cells
# Assay: agonist dose response in Ca2+-dependent SEAP reporter and fluorescent calcium imaging in HEK-293T cells expressing TRPV1
# Format: cell-based
# T1 sequence (O35433 whole entry, the tested form may be a part): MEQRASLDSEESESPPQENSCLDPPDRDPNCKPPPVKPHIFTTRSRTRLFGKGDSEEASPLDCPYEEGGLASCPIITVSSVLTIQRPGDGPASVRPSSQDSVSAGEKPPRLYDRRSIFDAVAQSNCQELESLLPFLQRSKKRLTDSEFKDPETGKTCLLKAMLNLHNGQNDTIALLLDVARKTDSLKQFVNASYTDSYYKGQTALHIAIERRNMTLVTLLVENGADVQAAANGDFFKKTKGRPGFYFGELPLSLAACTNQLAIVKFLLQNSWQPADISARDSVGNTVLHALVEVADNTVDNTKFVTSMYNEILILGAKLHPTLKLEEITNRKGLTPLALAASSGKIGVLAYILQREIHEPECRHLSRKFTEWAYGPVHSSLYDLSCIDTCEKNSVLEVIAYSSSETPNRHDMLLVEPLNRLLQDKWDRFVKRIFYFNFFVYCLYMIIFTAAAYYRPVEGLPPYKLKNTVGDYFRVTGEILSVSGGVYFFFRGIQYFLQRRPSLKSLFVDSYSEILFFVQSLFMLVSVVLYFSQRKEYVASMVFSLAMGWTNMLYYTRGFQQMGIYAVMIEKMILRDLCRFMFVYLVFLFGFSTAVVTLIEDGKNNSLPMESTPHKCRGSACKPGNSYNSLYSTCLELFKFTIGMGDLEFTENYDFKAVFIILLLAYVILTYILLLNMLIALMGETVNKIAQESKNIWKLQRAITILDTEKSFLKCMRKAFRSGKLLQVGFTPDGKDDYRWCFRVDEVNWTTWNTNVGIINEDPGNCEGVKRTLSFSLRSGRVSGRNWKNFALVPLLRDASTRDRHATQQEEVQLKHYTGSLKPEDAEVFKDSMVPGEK
smiles,measurement,value
COc1cc(CNC(=O)CCCC/C=C/C(C)C)ccc1O [capsaicin],agonist dose response in Ca2+-dependent SEAP reporter and fluorescent calcium im,Dose dependent TRPV1-mediated SEAP production was observed with respect to both capsaicin and inhibitor concentration
